# Like-named read-outs stand apart in the source and are kept apart here.
# Experiments:
# Format in all cases: cell-based
# [1] = system: freshwater green alga (Selenastrum capricornutum); experiment: Inhibition of propagation of freshwater green alga (Example 4); conditions: after 72 hours, cell number vs non-treated lot; for inhibition at 0.05 ppm: 50ppb, read-out: Propagation inhibiting rate(%) 50ppb; for inhibition at 0.5 ppm: 500ppb, read-out: Propagation inhibiting rate(%) 500ppb
# Experimental: A predetermined amount of each of the compounds of the invention was dissolved in a culture medium containing 10^5 /ml of a freshwater green alga (Selenastrum capricornutum) at a logarithmic growth phase to prepare samples having a concentration of the compound of the invention in the medium of 500 ppb and 50ppb respectively. The samples were stationary cultured at 23±1 °C for […] under continuous illumination.
# After 72 hours, the number of cells was measured using a hemacytometer to obtain propagation rate. The propagation inhibiting rate was calculated from comparison with the non-treated lot.
# [2] = system: Trichophyton mentagrophytes; conditions: 72 h, 100 ppm
# Experimental: 31.3 ml of Trichophyton mentagrophytes to be tested was added to 125 ml of a potato dextrose agar culture medium (Nissui Seiyaku Co.). The medium was stirred not to foam the solutions, poured into plates uniformly and solidified.
# Thereafter, predetermined amounts of the compounds of the invention were weighted and diluted with acetone to predetermined concentrations.
# Paper disks were impregnated with samples containing predetermined amounts of the compounds of the invention, laid on a filter, dried with air and placed on a plate containing test microbe at equal intervals.
# Trichophyton mentagrophytes was cultured at 28 °C for 3 days in a thermostatic chamber and the diameter of each inhibiting zone was measured to evaluate the activity of each compound. Symbols in the table mean the followings; • A: Trichophyton mentagrophytes, • ++: strongly inhibiting zone (equal to or more than 21 mm) is observed, • +: inhibiting zone (10 to 20 mm) is observed, • -: no inhibiting zone is observed.
# [3] = system: Corynebacterium aquaticum; experiment: Agar dilution MIC (Example 3); conditions: Leifsonia aquatica, agar plate, 37±1 °C, 18 to 20 hours
# Experimental: (§1) Series of diluted samples (20000, 10000, 5000, 2500, 1250, 625, 313, 156, 78, 39 mg/l) of the compounds of the invention were prepared using dimethylsulfoxide. A sensitive culture medium-N (Nissui Seiyaku Co.) was used for bacteria and a potato dextrose agar culture medium (Nissui Seiyaku Co.) was used for fungi. 0.5 ml of each sample was added to and mixed with 9.5 ml of the culture medium, poured into a Petri dish and solidified to obtain a plate. As a result, the concentration of the compounds of the invention in the agar culture medium were 1000, 500, 250, 125, 62.5, 31.3, 15.6, 7.8, 3.9, 2.0 mg/l. The bacterium inoculated were cultured in a bouillon for the assay of sensitivity (Nissui Seiyaku Co.) at 37 °C for 20 hours, and the fungi were cultured in the potato dextrose agar culture medium (Nissui Seiyaku Co.) for 10 days and then a 10^6 CFU/ml suspension was prepared from each of them. A test bacteria or fungi suspension was streaked on an agar plate containing the compound of the present invention with platinum wire loop, and the agar plate was cultured at 37±1 °C for 18 to 20 hours for bacteria or at 27 °C for 7 days for fungi. A concentration at which no growth was seen was taken as minimum inhibitory concentration (MIC). Symbols in the tables mean the followings; • A: Bacillus subtilis, • B: Trichophyton mentagrophytes, • C: Staphylococcus aureus, • D: Aspergillus niger, • E: Penicillium funiculosum, • F: Candida albicans, • G: Micrococcus luteus, • H: Corynebacterium aquaticum, • I: Chaetomium globosum, • J: Fusarium moniliforme, • K: Saccharomyces cerevisiae, • L: Rhodotorula rubra, • M: Cladosporium cladosporioides, • N: Alternaria alternata.
# [4] = system: Fusarium moniliforme; experiment: Agar dilution MIC (Example 3); conditions: Fusarium verticillioides, 168 h, agar plate, 27 °C, 7 days
# Experimental: as §1
# [5] = system: Chaetomium globosum; experiment: Agar dilution MIC (Example 3); conditions: 168 h, agar plate, 27 °C, 7 days
# Experimental: as §1
# [6] = system: Cladosporium cladosporioides; experiment: Agar dilution MIC (Example 3); conditions: 168 h, agar plate, 27 °C, 7 days
# Experimental: as §1
# [7] = system: Penicillium funiculosum; experiment: Agar dilution MIC (Example 3); conditions: Talaromyces funiculosus, 168 h, agar plate, 27 °C, 7 days
# Experimental: as §1
# [8] = system: Rhodotorula rubra; experiment: Agar dilution MIC (Example 3); conditions: 168 h, agar plate, 27 °C, 7 days
# Experimental: as §1
# [9] = system: Aspergillus niger; experiment: Agar dilution MIC (Example 3); conditions: 168 h, agar plate, 27 °C, 7 days
# Experimental: as §1
# [10] = system: Trichophyton mentagrophytes; experiment: Agar dilution MIC (Example 3); conditions: 168 h, agar plate, 27 °C, 7 days
# Experimental: as §1
# [11] = system: Saccharomyces cerevisiae; experiment: Agar dilution MIC (Example 3); conditions: 168 h, agar plate, 27 °C, 7 days
# Experimental: as §1
# [12] = system: freshwater green alga (Scenedesmus pannonicus); experiment: Inhibition of propagation of freshwater algae (Example 6); conditions: Desmodesmus pannonicus, 500ppb
# Experimental: (§2) A predetermined amount each of the compounds of the invention was dissolved in a culture medium containing 10^5 /ml of a freshwater alga at a logarithmic growth phase to prepare samples having a concentration of the compound of the invention in the medium of 500 ppb and 50 ppb respectively. A shaking culture at 100 rpm was performed for […] under continuous illumination at 20±2 °C for freshwater diatom and at 23±2 °C for other algae.
# (§3) After 72 hours and 168 hours, the […] of cells was measured using a hemacytometer to obtain propagation rate. The propagation inhibiting rate was calculated from comparison with the non-treated lot. Symbols in the tables mean the followings; • A: freshwater green alga (Chlorella pyrenoidosa), • B: freshwater blue-green alga (Microcystis aeruginosa), • C: freshwater diatom (Diatoma elongatum), • D: freshwater green alga (Scenedesmus pannonicus).
# [13] = system: Alternaria alternata; experiment: Agar dilution MIC (Example 3); conditions: 168 h, agar plate, 27 °C, 7 days
# Experimental: as §1
# [14] = system: freshwater blue-green alga (Microcystis aeruginosa); experiment: Inhibition of propagation of freshwater algae (Example 6); conditions: 500ppb
# Experimental: as §2, §3
# [15] = system: freshwater green alga (Chlorella pyrenoidosa); experiment: as above; conditions: Auxenochlorella pyrenoidosa, 500ppb
# Experimental: as §2, §3
# [16] = system: Trichophyton mentagrophytes; experiment: Agar dilution MIC (Example 2); conditions: 168 h, agar plate, 27 °C, 7 days
# Experimental: (§4) Series of diluted samples (20000, 10000, 5000, 2500, 2000, 1250, 625, 313, 156, 78, 39, 20, 10, 5, 2.5, 1.25 mg/l) of the compounds of the invention were prepared using dimethylsulfoxide. A sensitive culture medium-N (Nissui Seiyaku Co.) was used for bacteria and a potato dextrose agar culture medium (Nissui Seiyaku Co.) was used for fungi. 0.5 ml of each sample was added to and mixed with 9.5 ml of the culture medium, poured into a Petri dish and solidified to obtain a plate. As a result, the concentration of the compounds of the invention in the agar culture medium were 1000, 500, 250, 125, 100, 62.5, 31.3, 15.6, 7.8, 3.9, 2.0, 1.0, 0.5, 0.25, 0.125, 0.062 mg/l. The bacterium inoculated were cultured in a bouillon for the assay of sensitivity (Nissui Seiyaku Co.) at 37 °C for 20 hours, and the fungi were cultured in the potato dextrose agar culture medium (Nissui Seiyaku Co.) for 10 days and then a 10^6 CFU/ml suspension was prepared from each of them. A test bacteria or fungi suspension was streaked on an agar plate containing the compound of the present invention with platinum wire loop, and the agar plate was cultured at 37±1 °C for 18 to 20 hours for bacteria or at 27 °C for 7 days for fungi. A concentration at which no growth was seen was taken as minimum inhibitory concentration [MIC(mg/l)]. Symbols in the table mean the followings; • A: Bacillus subtilis, • B: Trichophyton mentagrophytes, • C: Rhodotorula mucilaginosa.
# [17] = system: freshwater diatom (Diatoma elongatum); experiment: Inhibition of propagation of freshwater algae (Example 6); conditions: Diatoma tenuis; for inhibition at 0.05 ppm: 50ppb; for inhibition at 0.5 ppm: 500ppb
# Experimental: as §2, §3
# [18] = system: Bacillus subtilis; experiment: Agar dilution MIC (Example 2); conditions: agar plate, 37±1 °C, 18 to 20 hours
# Experimental: as §4
# [19] = system: Rhodotorula mucilaginosa; experiment: Agar dilution MIC (Example 2); conditions: 168 h, agar plate, 27 °C, 7 days
# Experimental: as §4
# [20] = system: seawater diatom [Nitzschia closterium]; experiment: Inhibition of propagation of seawater diatom (Example 5); conditions: Cylindrotheca closterium, 72 h, read-out: Propagation inhibiting rate(%) 500ppb
# Experimental: A predetermined amount of each of the compounds of the invention was dissolved in culture media containing 10^5 /ml of a seawater diatom [Nitzschia closterium] at a logarithmic growth phase to prepare samples having a concentration of the compound in the medium of 500 ppb. The samples were stationary cultured at 22±1 °C for […] under continuous illumination.
# After 72 hours, cells were collected by centrifugation and disrupted by addition of methanol to extract chlorophyll, and the amount of chlorophyll was measured from absorbance using a spectrophotometer to obtain propagation rate. The propagation inhibiting rate was calculated from comparison with the non-treated lot.
# [21] = 72hr, read-out: Propagation inhibiting rate (%) 500ppb 72hr
# [22] = 168hr, read-out: Propagation inhibiting rate (%) 500ppb 168hr
# [23] = 72hr, read-out: Propagation inhibiting rate(%) 500ppb 72hr
# [24] = 168hr, read-out: Propagation inhibiting rate(%) 500ppb 168hr
Structure (SMILES),inhibition at 0.5 ppm [1] [%],Judgment (Target bacteria: A) [2],MIC [3] [µg/mL],MIC [4] [µg/mL],MIC [5] [µg/mL],MIC [6] [µg/mL],MIC [7] [µg/mL],MIC [8] [µg/mL],MIC [9] [µg/mL],MIC [11] [µg/mL],"inhibition at 0.5 ppm [12, 21] [%]","inhibition at 0.5 ppm [12, 22] [%]","inhibition at 0.5 ppm [15, 24] [%]",MIC [16] [µg/mL],also measured
Cc1cc(C)cc(CN(C)Cc2ccc(C(C)(C)C)cc2)c1 [Compound 2],96,++ (strongly inhibiting zone (equal to or more than 21 mm) is observed),31.3,63,31.3,125,31.3,125,125,63,91,99,–,–,inhibition at 0.05 ppm [1]: 84%; MIC [10]: < 2 µg/mL
Cc1cccc(C)c1CN(C)Cc1ccc(C(C)(C)C)cc1 [Compound 5],75,++ (strongly inhibiting zone (equal to or more than 21 mm) is observed),7.8,7.8,15.6,31.3,15.6,63,< 2,63,76,78,62,–,"MIC [13]: 125 µg/mL; inhibition at 0.5 ppm [14, 23]: 56%; inhibition at 0.5 ppm [14, 24]: 62%"
CN(Cc1ccc(C(C)(C)C)cc1)C1CCCc2ccccc21 (centres unmarked) [Compound 6],70,++ (strongly inhibiting zone (equal to or more than 21 mm) is observed),15.6,–,–,125,–,–,–,31.3,–,–,79,< 0.062,–
Cc1ccc(C)c(CN(C)Cc2ccc(C(C)(C)C)cc2)c1 [Compound 8],90,++ (strongly inhibiting zone (equal to or more than 21 mm) is observed),31.3,–,63,63,31.3,125,7.8,125,72,86,86,–,–
CC(c1ccccc1Cl)N(C)Cc1ccc(C(C)(C)C)cc1 (centres unmarked) [Compound 9],94,++ (strongly inhibiting zone (equal to or more than 21 mm) is observed),–,–,–,–,–,–,–,–,–,85,–,0.5,"inhibition at 0.05 ppm [1]: 59%; inhibition at 0.05 ppm ([17]; 72hr, read-out: Propagation inhibiting rate(%) 50ppb 72hr): 88%; inhibition at 0.05 ppm ([17]; 168hr, read-out: Propagation inhibiting rate(%) 50ppb 168hr): 94%; inhibition at 0.5 ppm [17, 23]: 76%; inhibition at 0.5 ppm [17, 24]: 100%; inhibition at 0.5 ppm [14, 23]: 97%; inhibition at 0.5 ppm [14, 24]: 98%; inhibition at 0.5 ppm [15, 23]: 70%"
CN(Cc1ccc(C(C)(C)C)cc1)Cc1c(Cl)cccc1Cl [Compound 19],–,–,–,–,–,–,–,–,–,–,–,–,–,0.25,MIC [18]: 15.6 µg/mL
Cc1cc(C)c(CN(C)Cc2ccc(C(C)(C)C)cc2)c(C)c1 [Compound 20],63,–,7.8,31.3,31.3,–,15.6,31.3,7.8,15.6,–,–,–,2,MIC [19]: 15.6 µg/mL; MIC [13]: 15.6 µg/mL
Cc1ccc(CN(C)Cc2ccc(C(C)(C)C)cc2)cc1C [Compound 23],97,–,31.3,125,125,125,63,–,–,125,–,–,–,2,inhibition at 0.05 ppm [1]: 65%
CC(C)Cc1ccc(CN(C)Cc2cccc3ccccc23)cc1 [Compound 32],86,–,–,–,–,–,–,–,–,–,83,–,75,< 1,–
CC(C)(C)c1ccc(CNCc2ccc(Cl)c(Cl)c2)cc1 [Compound 34],98,–,–,–,–,–,–,–,–,–,–,–,–,7.8,MIC [19]: 62.5 µg/mL; inhibition at 0.5 ppm [20]: 100%
Clc1ccc(CNCc2cccc3ccccc23)cc1Cl [Compound 49],97,–,–,–,–,–,–,–,–,–,–,–,–,15.6,MIC [19]: 62.5 µg/mL; inhibition at 0.5 ppm [20]: 100%
